Strand notation (5' to 3'): a small letter for the sugar, then the base; units joined by * are phosphorothioate-linked, units joined directly phosphodiester-linked; [ ] holds rarer units or linkages, { } end groups; capitals alone tell only the bases. d = 2'-deoxy (DNA)
What was measured:
H1975 xenograft tumor = assay: In vivo tumorigenesis assay, intratumoral DNAzyme; design: species or system Balb/c Nude mice
Experimental: (§1) 8-week-old Balb/c Nude mice were subcutaneously inoculated with 2×10^6 H1975 cells. After 7 days, mice were randomly divided into two groups consisting of ten mice in each group (DzControl or DzT790M-1). 500 pmoles of DzControl or DzT790M-1 mixed with lipofectamine 2000 were injected intratumorally at frequency of twice per week until completion of the experiments. The sizes of tumor were measured every 3-4 days. All the animal studies were performed according to the protocols approved by the Laboratory Animal Center, Academia Sinica. After the mice were sacrificed, the tumor tissues were excised and fixed by 10% formalin and embedded in paraffin. Xenograft tumor slides were stained for hematoxylin and eosin and analyzed with microscopy.
as §1, with “All the animal studies were performed according to the protocols approved by the Laboratory Animal Center, Academia Sinica.” left out, “microscopy. […] To assess the effects of DzT790M-1 on EGFR expression and downstream signaling, tumors taken from the Balb/c Nude mice were processed for western blotting.” for “microscopy.”

CL97 cells (EGFR T790M) = assay: Cell proliferation assay (cell counting); type: cell-based, human; conditions: 100 nM, 0-72 h after transfection
Experimental: (§2) A549, CL1-5, H1975, or CL97 was seeded onto 6-well and cultured overnight. Then, cells were separately treated with 100 nM DzControl or DzT790M-1 with lipofectamine 2000 (Invitrogen). Cells were trypsinized and counted at 0 h, 24 h, 48 h, or 72 h after transfection.
(§3) EGFR and downstream signaling pathway regulates important cell functions including cell proliferation and survival. In order to examine functional effects of DzT790M-1 on cell survival, the number of cells was counted after DzControl or DzT790M-1 transfection respectively. In A549 and CL1-5 cells (EGFR wild-type), the rate of cell proliferation or the cell number was not different between DzControl and DzT790M-1 transfected group (FIGS. 4A and 4B). In H1975 and CL97 cells (EGFR T790M), DzControl transfected cells were continued to grow after transfection when the number of DzT790M-1 treated cells was reduced (FIGS. 4C and 4D). In order to figure out whether DzT790M-1 treated cells undergoes cell apoptosis, immunoblotting against cleaved form of PARP and immunostaining of annexin V and PI were performed. The cleavage of PARP is caused by increased activity of caspase-3 and serves as a marker for cell apoptosis. […] While only 3.6% of cells underwent apoptosis and 12.4% of cells were dead in DzControl transfected H1975 cells, 18.6% of cells were detected as apoptotic cells and 32.6% of cells were annexin V and PI double positive in DzT790M-1 treated group (FIG. 4F).

H1975 cells (EGFR T790M) = assay: Cell proliferation assay (cell counting); type: cell-based, human; conditions: 100 nM, 0-72 h after transfection
Experimental: as §2, §3

[1] = test system: A549 cells (EGFR wild-type); assay: Cell proliferation assay (cell counting); type: cell-based, human; conditions: 100 nM, 0-72 h after transfection
Experimental: as §2, §3

[2] = test system: CL1-5 cells (EGFR wild-type); assay: Cell proliferation assay (cell counting); type: cell-based, human; conditions: 100 nM, 0-72 h after transfection
Experimental: as §2, §3

wild-type EGFR mRNA = assay: Real-time PCR of EGFR mRNA knockdown; type: cell-based, human; conditions: 100 nM with lipofectamine 2000, 48 h
Experimental: (§4) A549, CL1-5, H1975, or CL97 was seeded onto 6-well at 3×10^5 cells/well and cultured overnight. Then, cells were separately treated with 100 nM DzControl or DzT790M-1 with lipofectamine 2000 (Invitrogen). After 48 h, total mRNA were extracted from DNAzyme-treated cells by Mestrisol following manufacturer's protocol. cDNA were synthesized by using RT III kit with random hexamers as primers (Invitrogen). The PCR primers were synthesized by Genomics BioSci & Tech (Taipei, Taiwan). The sequences of PCR primers are listed as follows: […]
(§5) The parameters for PCR were: 95° C. for 10 min, then 25 cycles of PCR at 95° C. for 30 s, 60° C. for 30 s, and 72° C. for 60 s. 3% agarose gels were used for electrophoresis of PCR products. The intensity of bands were quantified by Image J. Quantitative RT-PCR was performed on 40 ng total mRNA with the LightCycler 480 system (Roche). The PCR mix contained 5 μl of 2× Probe Master mix, 100 nM of UPL probe (Roche Diagnostics, Penzberg, Germany), 200 nM of forward primer and reverse primer, 0.1 ul RNAseout (Invitrogen), and 0.025 ul RTIII enzyme (Invitrogen) in a total volume of 10 μl. PCR parameters were as follows: 50° C. for 40 min, then 45 cycles of PCR at 95° C. for 10 s, 60° C. for 10 s, and 72° C. for 2 s. Data were analyzed by LC480 software (Roche Diagnostics, Penzberg, Germany). The relative amount of EGFR mRNA was normalized to ACTB mRNA. The sequences of PCR primers are as follows: […]
(§6) To examine the allele selectivity of DzT790M-1, EGFR mRNA knockdown efficiency was detected in two cell lines harboring wild-type EGFR (A549, CL1-5) and two cell lines containing EGFR T790M mutation (H1975, CL97). A549, CL1-5, H1975, or CL97 was seeded onto 6-well at 3×10^5 cells/well and cultured overnight. Then, cells were separately treated with 100 nM DzControl or DzT790M-1 with lipofectamine 2000 (Invitrogen). After 48 h, total mRNA was extracted. […] DzT790M-1 knocked down 68.2% and 77.4% T790M EGFR mRNA expression in H1975 and CL97 cells respectively. In contrast, in A549 and CL1-5 cells, only 1.1% and 19.2% wild-type EGFR mRNA expression was affected.

T790M EGFR mRNA = assay: Real-time PCR of EGFR mRNA knockdown; type: cell-based, human; conditions: 100 nM with lipofectamine 2000, 48 h
Experimental: as §4, §5, §6

[3] = 500 pmoles intratumorally twice per week

In the case of “DzT790M-1: 10-23 DNAzyme against EGFR T790M mRNA, arms 10/4, phosphorothioate ends: AGCTGCATGAGGCTAGCTACAACGAGAGC (DNA dA*dGdCdTdGdCdAdTdGdAdGdGdCdTdAdGdCdTdAdCdAdAdCdGdAdGdAdG*dC; further chemistry not fully specified)”, the “total EGFR, pEGFR, pSTAT3, pAKT, pERK expression in xenograft tumor tissue (western blotting)” value (H1975 xenograft tumor; [3]) is reported as “significantly suppressed”, the “tumor tissue histology (hematoxylin and eosin)” value (H1975 xenograft tumor; [3]) is reported as “Severe necrosis” and the tumor growth (H1975 xenograft tumor; 500 pmoles with lipofectamine 2000 intratumorally twice per week, vs DzControl) is reported as “significantly suppressed”. The “number of cells after transfection” value (CL97 cells (EGFR T790M)) was “reduced”, the “number of cells after transfection” value (H1975 cells (EGFR T790M)) was “reduced” and the “rate of cell proliferation or cell number vs DzControl transfected group” value [1] was “not different”. The “rate of cell proliferation or cell number vs DzControl transfected group” value [2] was “not different”, the “remained EGFR mRNA expression (real-time PCR)” value (“remained EGFR mRNA expression” for short) (wild-type EGFR mRNA; A549 cells) was 121% and the “remained EGFR mRNA expression” value (wild-type EGFR mRNA; CL1-5 cells) was 95%. For the same substance, the “remained EGFR mRNA expression” value (T790M EGFR mRNA; CL97 cells) was 54% and the “remained EGFR mRNA expression” value (T790M EGFR mRNA; H1975 cells) was 32%.

Reference: patent US9856480B2, “Dnazyme for silencing the expression of EGFR” (DCB-USA LLC, priority 2013, dated 2018)
